From ChEMBL document CHEMBL1138817, “Synthesis and cytotoxic activity of 3-O-acyl/3-hydrazine /2-bromo/20,29-dibromo betulinic acid derivatives” (2004)
Converted amounts (≈) assume the structure as drawn.

Experiments:
Type in all cases: functional
Jurkat = assay: Cytotoxic activity against human JurkatE6.1 cell line was measured after 72 h using MTT assay; conditions: Homo sapiens, Jurkat, 72 h; read-out: ED50 (the source's name)
A549 = assay: Cytotoxic activity against human A549 cell line was measured after 72 hr using MTT assay; conditions: A549, 72 h, read-out: ED50 (the source's name)
L132 = assay: Cytotoxic activity against human L132 cell line was measured after 72 hr using MTT assay; conditions: L132, 72 h, read-out: ED50 (the source's name)
PA-1 = assay: Cytotoxic activity against human PA-1 cell line was measured after 72 hr using MTT assay; conditions: Homo sapiens, PA-1, 72 h; read-out: ED50 (the source's name)
DU-145 = assay: Cytotoxic activity against human DU145 cell line was measured after 72 hr using MTT assay; conditions: Homo sapiens, DU-145, 72 h; read-out: ED50 (the source's name)
MOLT-4 = assay: Cytotoxic activity against human MOLT-4 cell line was measured after 72 hr using MTT assay; conditions: Homo sapiens, MOLT-4, 72 h; read-out: ED50 (the source's name)
CCRF-CEM = assay: Cytotoxic activity against human CEM.CM3 cell line was measured after 72 hr using MTT assay; conditions: Homo sapiens, CCRF-CEM, 72 h; read-out: ED50 (the source's name)
BRISTOL8 = assay: Cytotoxic activity against human BRISTOL8 cell line was measured after 72 hr using MTT assay; conditions: Homo sapiens, BRISTOL8, 72 h; read-out: ED50 (the source's name)
U-937 = assay: Cytotoxic activity against human U937 cell line was measured after 72 hr using MTT assay; conditions: Homo sapiens, U-937, 72 h; read-out: ED50 (the source's name)

| SMILES | EC50 (Jurkat) [µg/mL] | EC50 (A549) [µg/mL] | EC50 (L132) [µg/mL] | EC50 (PA-1) [µg/mL] | EC50 (DU-145) [µg/mL] | EC50 (MOLT-4) [µg/mL] | EC50 (CCRF-CEM) [µg/mL] | EC50 (BRISTOL8) [µg/mL] | EC50 (U-937) [µg/mL] |
| --- | --- | --- | --- | --- | --- | --- | --- | --- | --- |
| COC(=O)CCOC(=O)[C@]12CC[C@@H](C(C)C)C1C1CCC3[C@@]4(C)CC(Br)C(=O)C(C)(C)C4CC[C@@]3(C)[C@]1(C)CC2 (some centres undefined) | 1.9 (≈ 3.06 µM) | > 10 | > 10 | 4.8 (≈ 7.72 µM) | 6.6 (≈ 10.6 µM) | 1.2 (≈ 1.93 µM) | 1.9 (≈ 3.06 µM) | 2.3 (≈ 3.7 µM) | 1.2 (≈ 1.93 µM) |
| C=C(C)[C@@H]1CC[C@]2(C(=O)O)CC[C@]3(C)C(CCC4[C@@]5(C)CC/C(=N\Nc6ccccc6)C(C)(C)C5CC[C@]43C)C12 (some centres undefined) | 2.6 (≈ 4.77 µM) | > 10 | 4.3 (≈ 7.89 µM) | 5.3 (≈ 9.73 µM) | 2.4 (≈ 4.41 µM) | 3.4 (≈ 6.24 µM) | 3.1 (≈ 5.69 µM) | 3.4 (≈ 6.24 µM) | 2.4 (≈ 4.41 µM) |
| COC(=O)COC(=O)[C@]12CC[C@@H](C(C)C)C1C1CCC3[C@@]4(C)CC(Br)C(=O)C(C)(C)C4CC[C@@]3(C)[C@]1(C)CC2 (some centres undefined) | 2.8 (≈ 4.61 µM) | > 10 | > 10 | 3.2 (≈ 5.27 µM) | 6.8 (≈ 11.2 µM) | 1.7 (≈ 2.8 µM) | 2.1 (≈ 3.46 µM) | 3.4 (≈ 5.6 µM) | 1.1 (≈ 1.81 µM) |
| CC(C)[C@@H]1CC[C@]2(C(=O)O)CC[C@]3(C)C(CCC4[C@@]5(C)CC(Br)C(=O)C(C)(C)C5CC[C@]43C)C12 (some centres undefined) | 0.7 (≈ 1.31 µM) | > 10 | > 10 | 0.5 (≈ 0.934 µM) | 3 (≈ 5.6 µM) | 0.4 (≈ 0.747 µM) | 0.3 (≈ 0.56 µM) | 2.9 (≈ 5.41 µM) | 1.3 (≈ 2.43 µM) |
| COC(=O)C(C)C(=O)O[C@H]1CC[C@@]2(C)C(CC[C@]3(C)C2CCC2C4[C@H](C(C)C)CC[C@]4(C(=O)O)CC[C@]23C)C1(C)C (some centres undefined) | 3.8 (≈ 6.63 µM) | 2.1 (≈ 3.67 µM) | 7.7 (≈ 13.4 µM) | 1.3 (≈ 2.27 µM) | 1 (≈ 1.75 µM) | 2.8 (≈ 4.89 µM) | 3.1 (≈ 5.41 µM) | 2.1 (≈ 3.67 µM) | 4 (≈ 6.98 µM) |
| C=C(C)[C@@H]1CC[C@]2(C(=O)O)CC[C@]3(C)[C@H](CC[C@@H]4[C@@]5(C)CCC(=O)C(C)(C)[C@@H]5CC[C@]43C)[C@@H]12 [BETUNOLIC ACID] | 0.4 (≈ 0.88 µM) | > 10 | > 10 | 1.2 (≈ 2.64 µM) | 3.1 (≈ 6.82 µM) | 1.2 (≈ 2.64 µM) | 4.4 (≈ 9.68 µM) | 2.6 (≈ 5.72 µM) | 2.8 (≈ 6.16 µM) |
